Assay results published in patent publication US12692291B2, “Diamine-linked melanocortin receptor-specific cyclic peptides for ocular indications” (Boehringer Ingelheim International GmbH, priority 2020, dated 2026).
*1 amine or outer side, *2 acyl side, *3 side chain or, on linkers, in order; H or OH if unused. Where a SMILES comes first, the peptide text is derived from it. Bridges are numbered along the chain shown (N, C = ends). [ ]: non-standard residue; d: D form. dPhe(4-F) = N[C@H](Cc1ccc(F)cc1)C(=O)O; NH(CH2)4NH = C(CCN[*:2])CN[*:1]; Nle = CCCC[C@H](N)C(=O)O

How the values were obtained:
MC1r (HBL) = target: T1, MC1r (HBL) (Homo sapiens, UniProt Q01726); test: cAMP agonist functional assay, native MC1r in HBL cells; format: cell-based
T1 construct: B16-F10 (mouse) and HBL (human) cell lines that express native MC1 r; endogenous in cells; host or cells: HBL (human) cell line
Method: (§1) Accumulation of intracellular cAMP was examined as a measure of the ability of the peptides to elicit a functional response in either HEK-293 cells that express recombinant MC3r or MC4r or B16-F10 (mouse) and HBL (human) cell lines that express native MC1 r. Confluent cells were detached from culture plates by incubation in enzyme-free cell dissociation buffer. Dispersed cells were suspended in Hank's Balanced Salt Solution containing 10 mM HEPES (pH 7.5), 1 mM MgCl2, 1 mM glutamine, 0.5% albumin and 0.3 mM 3-isobutyl-1-methyl-xanthine (IBMX), a phosphodiesterase inhibitor. The cells were dispensed into 96-well plates at a density of 0.5×10^5 cells per well and pre-incubated for 10 minutes. Cells were exposed for 15 minutes at 37° C. to peptides dissolved in DMSO (final DMSO concentration of 1%) at a concentration range of 0.05-5000 nM in a total assay volume of 200 μL. […] Data analysis was performed by nonlinear regression analysis with Graph-Pad Prism® software.

MC1r (B16/F10) = target: T2, MC1r (B16/F10) (Mus musculus, UniProt Q01727); test: cAMP agonist functional assay, native MC1r in B16-F10 cells; format: cell-based
T2 construct: B16-F10 (mouse) and HBL (human) cell lines that express native MC1 r; endogenous in cells; host or cells: B16-F10 (mouse) cell line
Method: as §1

MC3r = target: T3, MC3r (Homo sapiens, UniProt P41968); test: cAMP agonist functional assay, recombinant MC3r in HEK-293 cells; format: cell-based
T3 construct: expressed in transfected cells; host or cells: HEK-293
Method: as §1

MC4r = target: T4, MC4r (Homo sapiens, UniProt P32245); test: cAMP agonist functional assay, recombinant MC4r in HEK-293 cells; format: cell-based
T4 construct: expressed in transfected cells; host or cells: HEK-293
Method: as §1

MC5r [1] = target: T5, MC5r (Homo sapiens, UniProt P33032); test: cAMP agonist functional assay at MC5r (not CEREP); format: cell-based
Target sequence in this assay (P33032 whole entry, species assumed): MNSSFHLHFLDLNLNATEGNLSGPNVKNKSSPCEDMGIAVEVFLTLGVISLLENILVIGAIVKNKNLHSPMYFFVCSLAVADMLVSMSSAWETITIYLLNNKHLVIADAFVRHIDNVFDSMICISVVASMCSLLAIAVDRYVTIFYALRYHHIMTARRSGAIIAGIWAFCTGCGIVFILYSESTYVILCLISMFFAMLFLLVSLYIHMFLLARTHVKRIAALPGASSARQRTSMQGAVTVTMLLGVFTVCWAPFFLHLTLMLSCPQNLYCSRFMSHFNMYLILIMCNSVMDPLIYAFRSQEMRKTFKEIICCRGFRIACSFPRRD

MC5r [2] = target: T5, MC5r; test: CEREP agonist assay, cAMP production by HTRF, MC5 in CHO-K1 cells; format: cell-based
Method: Evaluation of the agonist activity of compounds at the melanocortin receptors was determined by measuring their effects on cAMP production using the HTRF detection method at CEREP (Eurofins CEREP SA, Celle-Levescault, France). The cells were suspended in HBSS buffer (Invitrogen) complemented with 20 mM HEPES (pH 7.4) and 500 μM IBMX, then distributed in microplates and incubated in the presence of HBSS (basal control), the test compound or the reference agonist. Incubation time, temperature, cell number, reference agonist and cell line information are included in the Table 1 below. For stimulated control measurement, separate assay wells contain reference compound. Following incubation, the cells are lysed and the fluorescence acceptor (D2-labeled cAMP) and fluorescence donor (anti-cAMP antibody labeled with europium cryptate) were added. After 60 minutes at room temperature, the fluorescence transfer was measured at excitation wavelength 337 nm and emission wavelengths 620 and 665 nm using a microplate reader (Envision, Perkin Elmer). The cAMP concentration was determined by dividing the signal measured at 665 nm by that measured at 620 nm (ratio).
The results are expressed as a percent of the control response to 1 μM of the reference. The standard reference agonist is tested in each experiment at several concentrations to generate a concentration-response curve from which its EC50 value is calculated.
Target sequence in this assay (P33032 whole entry): as the sequence (P33032 whole entry, species assumed) above

male C57BL/6JRj mice = test: Chronic dry-eye disease mouse model (desiccating environment plus scopolamine), corneal fluorescein staining; format: in vivo; details: for corneal fluorescein staining compared with untreated eyes: Day 24, after 12 days topical treatment
Method: To determine efficacy of peptide No. 60 for moderate, chronic dry-eye disease, male C57BL/6JRj mice were exposed to a controlled desiccating environment with transdermal administration of scopolamine (SiccaSystem™) to establish disease prior to any treatment. Corneal fluorescein staining was performed on study Days 10 and 12 (prior to treatment) and Day 24 (after 12 days of topical treatment with test compounds). Animals were randomized into 6 different experimental groups (n=12 for each treatment group, n=7 for untreated eyes) based on the fluorescein score on Day 12. Treatment arms included untreated and vehicle-treated animals and animals receiving Peptide No. 60 (3 different concentrations, 10^−2, 10^−3, and 10^−4 mg/mL) or the reference compound cyclosporin ophthalmic emulsion, sold under the trade name Restasis®.

[3] = system: adult subjects with mild, moderate or severe dry eye disease; test: Phase 2 placebo-controlled study in dry eye disease, Controlled Adverse Environment; format: in vivo, human
Description: Peptide No. 60 was utilized in the ophthalmologic solution drug product of Example 9.3 in a multi-center, double-masked, randomized, placebo-controlled, parallel-arm, Phase 2 study, which enrolled approximately 160 subjects (80 subjects per treatment arm). The objective of this study was to compare the safety and efficacy of Peptide No. 60 to its vehicle from Day 1 (baseline) to Day 85 (Week 12) in adult subjects with mild, moderate or severe dry eye disease in a Controlled Adverse Environment (CAE) setting. Both signs and symptoms were assessed at periodic visits.
During the screening period, two 90-minute exposures to the CAE were conducted to ascertain eligibility to enter the study. Subjects who qualify were randomized to receive study drug or placebo in a double-masked fashion for 12 weeks. Subjects self-administered drops three times per day (TID) and completed daily diary assessments as instructed.
At Visits 3 (Day 15, Week 2), 4 (Day 29, Week 4), 5 (Day 57, Week 8), and 6 (Day 85, Week 12), subjects were exposed to a CAE, with pre-CAE, during CAE (symptoms only) and post-CAE assessments of ocular signs and symptoms.

[4] = Ocular tissue distribution after dosing to the eye, mouse model; format: in vivo; details: at both 4 and 24 hours after dosing to the eye
Method: Peptide No. 60 was evaluated in several stability and pharmacokinetic models.

T3 sequence (P41968 whole entry, species assumed): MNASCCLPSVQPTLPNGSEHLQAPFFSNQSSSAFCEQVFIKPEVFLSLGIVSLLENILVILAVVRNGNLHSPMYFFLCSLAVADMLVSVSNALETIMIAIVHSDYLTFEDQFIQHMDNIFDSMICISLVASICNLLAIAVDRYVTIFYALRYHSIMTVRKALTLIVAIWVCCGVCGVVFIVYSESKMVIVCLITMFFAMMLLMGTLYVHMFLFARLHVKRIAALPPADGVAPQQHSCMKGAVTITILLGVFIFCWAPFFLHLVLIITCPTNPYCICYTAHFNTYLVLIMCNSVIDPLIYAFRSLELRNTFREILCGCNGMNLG
T1 sequence (Q01726 whole entry): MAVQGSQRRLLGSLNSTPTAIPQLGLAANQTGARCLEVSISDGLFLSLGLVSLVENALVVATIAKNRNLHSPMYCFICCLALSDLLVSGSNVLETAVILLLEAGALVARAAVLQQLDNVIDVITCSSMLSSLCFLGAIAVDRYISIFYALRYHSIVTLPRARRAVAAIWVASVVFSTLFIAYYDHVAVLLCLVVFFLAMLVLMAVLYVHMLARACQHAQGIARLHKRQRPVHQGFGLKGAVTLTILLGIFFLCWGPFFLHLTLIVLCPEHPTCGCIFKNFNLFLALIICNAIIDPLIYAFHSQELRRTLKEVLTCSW
T4 sequence (P32245 whole entry): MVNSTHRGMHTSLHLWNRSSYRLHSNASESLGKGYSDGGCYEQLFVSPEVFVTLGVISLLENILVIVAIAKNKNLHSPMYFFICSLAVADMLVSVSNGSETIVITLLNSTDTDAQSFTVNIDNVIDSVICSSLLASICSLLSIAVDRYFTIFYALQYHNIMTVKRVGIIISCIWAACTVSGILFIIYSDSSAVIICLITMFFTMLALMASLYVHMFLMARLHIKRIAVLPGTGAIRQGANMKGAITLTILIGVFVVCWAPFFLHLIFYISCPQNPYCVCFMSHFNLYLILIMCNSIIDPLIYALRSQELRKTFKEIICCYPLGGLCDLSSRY
T2 sequence (Q01727 whole entry): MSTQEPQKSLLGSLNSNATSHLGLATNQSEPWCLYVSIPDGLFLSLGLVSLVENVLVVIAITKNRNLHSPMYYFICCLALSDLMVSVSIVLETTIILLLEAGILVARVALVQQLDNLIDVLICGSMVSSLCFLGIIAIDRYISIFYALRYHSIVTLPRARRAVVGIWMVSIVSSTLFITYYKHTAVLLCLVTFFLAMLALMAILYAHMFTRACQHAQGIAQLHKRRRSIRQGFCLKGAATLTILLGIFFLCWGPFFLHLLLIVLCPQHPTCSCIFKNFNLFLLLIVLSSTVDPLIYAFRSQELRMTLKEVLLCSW

## CCCC[C@H](NC(C)=O)C(=O)N[C@H]1CCC(=O)NCCCCNC(=O)[C@H](Cc2c[nH]c3ccccc23)NC(=O)[C@H](CCCNC(=N)N)NC(=O)[C@@H](Cc2ccc(F)cc2)NC(=O)[C@H](Cc2c[nH]cn2)NC1=O [Peptide No. 60, Ac-Nle-cyclo(Glu-His-D-Phe(4-F)-Arg-Trp-NH—(CH2)4—NH)] (Ac-[Nle]EH[dPhe(4-F)]RW; linker 2-C via NH(CH2)4NH)
MC1r (HBL); MC1r (HBL)
  EC50: 130 pM
  Fold Peptide No. 60 More Potent Than Bremelanotide: 0.78X
  Fold Peptide No. 60 More Potent Than α-MSH: 69X
MC1r (HBL); at MC1r
  potency compared to bremelanotide (in words): approximately equal potency
  potency compared to α-MSH (in words): greater relative potency
MC1r (B16/F10)
  EC50: 20 pM
  Fold Peptide No. 60 More Potent Than Bremelanotide: 5X
  Fold Peptide No. 60 More Potent Than α-MSH: 11X
MC3r; MC3r
  EC50: 770 pM
  Fold Peptide No. 60 More Potent Than Bremelanotide: 4X
  Fold Peptide No. 60 More Potent Than α-MSH: 3.9X
MC3r; at MC3r
  potency compared to α-MSH (in words): roughly comparable
MC4r; MC4r
  EC50: 2000 pM
  Fold Peptide No. 60 More Potent Than Bremelanotide: 0.5X
  Fold Peptide No. 60 More Potent Than α-MSH: 1.5X
MC4r; at MC4r
  potency compared to α-MSH (in words): roughly comparable
MC5r [1]; MC5r
  EC50: 150 pM
  Fold Peptide No. 60 More Potent Than Bremelanotide: 22,500X
  Fold Peptide No. 60 More Potent Than α-MSH: 686X
MC5r [1]; at MC5r
  potency compared to α-MSH (in words): greater relative potency
MC5r [2]
  EC50: 390 pM
  Fold Peptide No. 60 More Potent Than Bremelanotide: >25,000X (CEREP)
  Fold Peptide No. 60 More Potent Than α-MSH: 930X (CEREP)
Male C57BL/6JRj mice; 10^−2 mg/ml, P<0.05, Dunn's multiple comparisons test
  corneal fluorescein staining compared with untreated eyes: statistically significant lower corneal fluorescein staining
Male C57BL/6JRj mice; 10^−3 mg/ml, P<0.01, Dunn's multiple comparisons test
  corneal fluorescein staining compared with untreated eyes: statistically significant lower corneal fluorescein staining
Male C57BL/6JRj mice; 10^−4 mg/ml, P<0.01, Dunn's multiple comparisons test
  corneal fluorescein staining compared with untreated eyes: statistically significant lower corneal fluorescein staining
Male C57BL/6JRj mice; doses between 10^−2 and 10^−4 mg/mL, topical
  corneal fluorescein staining/scores, Day 12 compared with Day 24 for the same eye: statistically significantly improvement of corneal fluorescein scores
[3]; Phase 2 study
  ocular, drug-related adverse events: no ocular, drug-related adverse events
  serious adverse events associated with study treatment: no serious adverse events associated with study treatment observed
[3]; not deemed to be drug related
  patients discontinued from the study: one
[4]
  presence in ocular tissues: found in both the conjunctiva and lacrimal gland
